# Source: patent US10174036B2, “Substituted pyrazoles as JAK inhibitors” (WUXI FORTUNE PHARMACEUTICAL CO., LTD, priority 2015, dated 2019)
# Columns and labels:
# Format in all cases: biochemical
# JAK2 = molecular target: T1, JAK2 (Homo sapiens, UniProt O60674); test: Test for in vitro activity of JAK2 kinase (LANCE Ultra ULight-JAK-1 peptide); conditions: recombinant human JAK2, 12 uM ATP, 60 min; class symbol
# T1 construct: purchased Life technology
# Protocol: (§1) Test for In Vitro Activity of Jak1, Jak2, and Jak3 Kinase
# (§2) Recombinant human […] of JAK1, JAK2 and JAK3 were purchased from Life technology. LANCE Ultra ULight™-JAK-1 (Tyr1023) peptide and LANCE Eu-W1024 Anti-phosphotyrosine (PT66) were purchased from PerkinElmer. Multimode ELISA, Envison(PerkinElmer) reader was used.
# The reaction was carried out at room temperature for 60 min and the reaction system was 10 ul.
# (§3) Determination for Reaction
# (§4) 10 ul detection reagent was added to reaction plate, wherein the final concentration of LANCE Eu-W1024 Anti-phosphotyrosine (PT66) was 2 nM, the final concentration of EDTA was […], incubated at room temperature for 60 min, with Envison reader.
# (§5) The reading was converted to inhibition ratio (%) by the following formula: the inhibition ratio (%)=([…])/(Max−Min)×100%.
# JAK1 = molecular target: T2, JAK1 (Homo sapiens, UniProt P23458); test: Test for in vitro activity of JAK1 kinase (LANCE Ultra ULight-JAK-1 peptide); conditions: selectivity ratio JAK1 versus JAK2; class symbol
# T2 construct: purchased Life technology
# T2 sequence (P23458 whole entry): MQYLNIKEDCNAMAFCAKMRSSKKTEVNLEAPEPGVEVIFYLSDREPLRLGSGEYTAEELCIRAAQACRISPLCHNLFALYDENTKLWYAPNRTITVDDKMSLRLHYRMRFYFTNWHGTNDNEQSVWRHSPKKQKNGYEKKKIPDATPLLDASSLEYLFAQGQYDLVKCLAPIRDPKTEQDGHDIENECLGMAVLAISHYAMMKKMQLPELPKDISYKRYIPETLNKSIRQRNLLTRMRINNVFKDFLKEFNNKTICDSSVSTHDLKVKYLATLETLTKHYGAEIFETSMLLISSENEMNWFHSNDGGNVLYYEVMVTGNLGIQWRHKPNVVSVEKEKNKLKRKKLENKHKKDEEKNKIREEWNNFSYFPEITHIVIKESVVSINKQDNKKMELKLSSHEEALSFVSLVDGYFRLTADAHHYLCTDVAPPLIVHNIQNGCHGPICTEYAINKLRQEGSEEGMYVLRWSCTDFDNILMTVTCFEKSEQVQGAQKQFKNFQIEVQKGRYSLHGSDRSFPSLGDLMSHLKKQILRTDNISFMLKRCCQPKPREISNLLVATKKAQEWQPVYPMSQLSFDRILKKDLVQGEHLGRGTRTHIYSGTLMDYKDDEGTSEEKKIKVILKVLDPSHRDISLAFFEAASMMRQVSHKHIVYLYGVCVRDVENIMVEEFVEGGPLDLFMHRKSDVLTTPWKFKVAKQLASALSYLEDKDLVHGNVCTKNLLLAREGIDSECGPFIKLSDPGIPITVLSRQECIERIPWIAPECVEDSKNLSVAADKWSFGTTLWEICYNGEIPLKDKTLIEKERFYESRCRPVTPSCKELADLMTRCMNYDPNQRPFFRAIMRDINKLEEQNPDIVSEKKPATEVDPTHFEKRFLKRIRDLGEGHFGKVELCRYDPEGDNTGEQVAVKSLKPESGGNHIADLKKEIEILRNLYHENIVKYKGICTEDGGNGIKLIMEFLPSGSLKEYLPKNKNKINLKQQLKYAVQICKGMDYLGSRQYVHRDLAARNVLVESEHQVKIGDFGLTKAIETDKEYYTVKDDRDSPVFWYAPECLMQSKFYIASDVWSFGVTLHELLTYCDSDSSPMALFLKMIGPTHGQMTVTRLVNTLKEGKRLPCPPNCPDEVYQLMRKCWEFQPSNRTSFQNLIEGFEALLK
# Protocol: as §1, §2
# The reaction was carried out at room temperature for 90 min and the reaction system was 10 ul.
# as §3, §4, §5
# JAK3 = molecular target: T3, JAK3 (Homo sapiens, UniProt P52333); test: Test for in vitro activity of JAK3 kinase (LANCE Ultra ULight-JAK-1 peptide); conditions: selectivity ratio JAK3 versus JAK2; class symbol
# T3 construct: purchased Life technology
# T3 sequence (P52333 1-1124): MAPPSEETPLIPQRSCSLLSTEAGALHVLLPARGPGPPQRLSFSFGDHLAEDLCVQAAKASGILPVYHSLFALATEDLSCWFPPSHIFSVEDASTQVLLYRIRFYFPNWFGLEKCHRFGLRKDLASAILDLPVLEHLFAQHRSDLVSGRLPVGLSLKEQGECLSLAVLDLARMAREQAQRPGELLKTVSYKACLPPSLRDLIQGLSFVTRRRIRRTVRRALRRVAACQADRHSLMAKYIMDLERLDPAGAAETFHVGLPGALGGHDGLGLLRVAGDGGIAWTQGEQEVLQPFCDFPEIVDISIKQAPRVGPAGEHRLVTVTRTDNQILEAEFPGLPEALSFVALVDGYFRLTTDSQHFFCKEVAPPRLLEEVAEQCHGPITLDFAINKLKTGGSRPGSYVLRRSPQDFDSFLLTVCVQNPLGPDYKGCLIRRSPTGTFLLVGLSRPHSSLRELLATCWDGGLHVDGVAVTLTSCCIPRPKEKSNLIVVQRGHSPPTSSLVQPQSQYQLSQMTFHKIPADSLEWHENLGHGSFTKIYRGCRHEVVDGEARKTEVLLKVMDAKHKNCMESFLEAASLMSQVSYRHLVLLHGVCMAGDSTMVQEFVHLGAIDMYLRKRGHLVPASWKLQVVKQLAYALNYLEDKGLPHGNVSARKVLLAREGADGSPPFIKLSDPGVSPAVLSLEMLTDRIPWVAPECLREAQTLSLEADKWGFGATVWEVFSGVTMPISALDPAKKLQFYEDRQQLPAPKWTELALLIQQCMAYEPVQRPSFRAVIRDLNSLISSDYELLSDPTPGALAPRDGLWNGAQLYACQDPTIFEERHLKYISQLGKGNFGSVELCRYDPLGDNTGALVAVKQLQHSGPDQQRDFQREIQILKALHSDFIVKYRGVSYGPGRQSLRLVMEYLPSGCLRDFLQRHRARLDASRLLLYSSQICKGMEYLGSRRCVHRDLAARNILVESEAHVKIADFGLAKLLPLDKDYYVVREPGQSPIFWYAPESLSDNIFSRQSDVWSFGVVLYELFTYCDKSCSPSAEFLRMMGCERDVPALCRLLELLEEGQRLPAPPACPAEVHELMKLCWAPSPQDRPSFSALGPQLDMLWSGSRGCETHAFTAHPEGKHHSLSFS
# Protocol: as §1, §2
# 0.05 nM of JAK3 Protein kinase, 50 nM of LANCE Ultra ULight™-JAK-1(Tyr1023) peptide, 4 uM of ATP, 50 mM of HEPES (pH 7.5), 10 mM of MgCl2, 1 mM of EGTA, 2 mM of DTT, 0.01% BRIJ-35. […] The reaction was carried out at room temperature for 90 min and the reaction system was 10 ul.
# as §3, §4, §5
# T1 sequence (O60674 whole entry): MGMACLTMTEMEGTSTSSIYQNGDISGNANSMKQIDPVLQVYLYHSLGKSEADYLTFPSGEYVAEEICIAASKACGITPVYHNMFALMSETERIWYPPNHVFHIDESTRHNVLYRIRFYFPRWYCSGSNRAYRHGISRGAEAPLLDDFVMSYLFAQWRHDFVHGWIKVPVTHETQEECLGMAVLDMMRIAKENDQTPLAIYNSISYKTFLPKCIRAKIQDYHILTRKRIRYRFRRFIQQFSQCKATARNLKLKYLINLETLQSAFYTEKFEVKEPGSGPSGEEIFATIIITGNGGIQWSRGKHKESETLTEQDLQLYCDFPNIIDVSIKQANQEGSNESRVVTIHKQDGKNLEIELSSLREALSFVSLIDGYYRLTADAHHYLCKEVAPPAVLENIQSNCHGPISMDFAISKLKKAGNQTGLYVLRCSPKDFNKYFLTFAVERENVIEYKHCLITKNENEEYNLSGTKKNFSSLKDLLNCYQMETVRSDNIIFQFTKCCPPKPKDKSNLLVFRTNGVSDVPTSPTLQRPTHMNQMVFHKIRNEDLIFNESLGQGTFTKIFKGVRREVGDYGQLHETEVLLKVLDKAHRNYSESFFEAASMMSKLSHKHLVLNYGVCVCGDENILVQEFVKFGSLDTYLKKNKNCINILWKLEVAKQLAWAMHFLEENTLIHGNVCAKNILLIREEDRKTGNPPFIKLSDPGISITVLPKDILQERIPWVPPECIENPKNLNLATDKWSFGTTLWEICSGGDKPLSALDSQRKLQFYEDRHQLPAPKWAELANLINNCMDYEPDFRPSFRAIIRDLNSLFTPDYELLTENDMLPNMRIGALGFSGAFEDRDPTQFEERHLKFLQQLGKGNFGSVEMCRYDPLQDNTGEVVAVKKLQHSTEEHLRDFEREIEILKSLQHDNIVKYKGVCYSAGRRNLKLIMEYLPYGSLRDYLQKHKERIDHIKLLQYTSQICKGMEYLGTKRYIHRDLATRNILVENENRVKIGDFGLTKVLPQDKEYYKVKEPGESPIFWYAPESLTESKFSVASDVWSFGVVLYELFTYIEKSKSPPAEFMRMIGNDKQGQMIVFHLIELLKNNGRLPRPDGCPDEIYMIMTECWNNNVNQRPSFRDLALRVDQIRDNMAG
Molecule,IC50 (JAK2),JAK1/JAK2 (times) (JAK1),JAK3/JAK2 (times) (JAK3)
"CCS(=O)(=O)N1CC(CC#N)(n2cc(-c3cccn4nc(NC(=O)C5CC5)nc34)cn2)C1 [WX20, N-(8-(1-(3-(cyanomethyl)-1-(ethylsulfonyl)azetidine-3-yl)-1H-pyrazole-4-yl)-[1,2,4]triazolo[1,5-a]pyridin-2-yl) cyclopropanecarboxamide]",< 0.01 µM,F1 (1 ≤ F1 ≤ 5),F4 (25 < F4 ≤ 100)
"CCS(=O)(=O)N1CC(CC#N)(n2cc(-c3cccn4nc(NC(=O)C(F)(F)F)nc34)cn2)C1 [WX22, N-(8-(1-(3-(cyanomethyl)-1-(ethylsulfonyl)azetidine-3-yl)-1H-pyrazole-4-yl)-[1,2,4]triazolo[1,5-a]pyridin-2-yl)-2,2,2-trifluoroacetamide]",0.1 to 1 µM,F1 (1 ≤ F1 ≤ 5),F3 (10 < F3 ≤ 25)
CS(=O)(=O)N1CC(CC#N)(n2cc(-c3cccc4nc(NC(=O)C5CC5)nn34)cn2)C1 [WX15],< 0.01 µM,F1 (1 ≤ F1 ≤ 5),F4 (25 < F4 ≤ 100)
"N#CCC1(n2cc(-c3nccc4nc(NC(=O)C5CC5)nn34)cn2)CN(S(=O)(=O)C(F)(F)F)C1 [WX02, N-[5-[1-[3-(cyanomethyl)-1-(trifluoromethylsulfonyl)azetidine-3-yl]pyrazole-4-yl]-[1,2,4]triazolo[1,5-c]pyrimidin-2-yl]cyclopropanecarboxamide]",< 0.01 µM,F1 (1 ≤ F1 ≤ 5),F3 (10 < F3 ≤ 25)
"CCS(=O)(=O)N1CC(CC#N)(n2cc(-c3nccn4nc(NC(=O)C5CC5)nc34)cn2)C1 [WX31, N-[8-[1-[3-(cyanomethyl)-1-ethylsulfonylazetidin-3-yl]pyrazole-4-yl)-[1,2,4]triazolo[1,5-a]pyrazine-2-yl] cyclopropanecarboxamide]",0.1 to 1 µM,F2 (5 < F2 ≤ 10),F3 (10 < F3 ≤ 25)
CS(=O)(=O)N1CC(CC#N)(n2cc(-c3nccc4nc(NC(=O)CC#N)nn34)cn2)C1 [WX26],0.1 to 1 µM,F3 (10 < F3 ≤ 25),F3 (10 < F3 ≤ 25)
"CS(=O)(=O)N1CC(CC#N)(n2cc(-c3cccc4nc(N)oc34)cn2)C1 [WX29, 2-(3-(4-(2-aminobenzo[d]oxazole-7-yl)-1H-pyrazole-1-yl)-1-(methylsulfonyl)azetidin-3-yl)acetonitrile]",< 0.01 µM,F3 (10 < F3 ≤ 25),F4 (25 < F4 ≤ 100)
"CS(=O)(=O)N1CC(CC#N)(n2cc(-c3cccc4nc(NC(=O)C5CC5)sc34)cn2)C1 [WX28, N-(7-(1-(3-(cyanomethyl)-1-(methylsulfonyl)azetidin-3-yl)-1H-pyrazole-4-yl)benzo[d]thiazole-2-yl) cyclopropanecarboxamide]",< 0.01 µM,F3 (10 < F3 ≤ 25),F4 (25 < F4 ≤ 100)
"N#CCC1(n2cc(-c3nccc4nc(NC(=O)C5CC5)nn34)cn2)CN(S(=O)(=O)C2CC2)C1 [WX03, N-[5-[1-[3-(cyanomethyl)-1-cyclopropylsulfonyl-azetidine-3-yl]pyrazole-4-yl]-[1,2,4]triazolo[1,5-c]pyrimidin-2-yl]cyclopropanecarboxamide]",0.01 to 0.1 µM,F2 (5 < F2 ≤ 10),F3 (10 < F3 ≤ 25)
"N-(5-(1-(3-(cyanomethyl)-1-((methylsulfonyl)azetidine-3-yl)-1H-pyrazole-4-yl)-[1,2,4]triazolo[1,5-c]pyridin-2-yl)-2-methoxyacetamide [WX25]",0.1 to 1 µM,F3 (10 < F3 ≤ 25),F2 (5 < F2 ≤ 10)
"CS(=O)(=O)N1CC(CC#N)(n2cc(-c3cccc4nc(NC(=O)C5CC5)oc34)cn2)C1 [WX30, N-(7-(1-(3-(cyanomethyl)-1-(methylsulfonyl)azetidin-3-yl)-1H-pyrazole-4-yl)benzo[d]oxazole-2-yl) cyclopropanecarboxamide]",< 0.01 µM,F2 (5 < F2 ≤ 10),F4 (25 < F4 ≤ 100)
"CCS(=O)(=O)N1CC(CC#N)(n2cc(-c3nccc4nc(NC(=O)C5CC5)nn34)cn2)C1 [WX01, N-[5-[1-[3-(cyanomethyl)-1-ethylsulfonylazetidine-3-yl]pyrazole-4-yl]-[1,2,4]triazolo[1,5-c]pyrimidin-2-yl]cyclopropanecarboxamide]",0.01 to 0.1 µM,F2 (5 < F2 ≤ 10),F3 (10 < F3 ≤ 25)
"CCS(=O)(=O)N1CC(CC#N)(n2cc(-c3cccc4nc(NC(=O)C5CC5)nn34)cn2)C1 [WX16, N-(5-(1-(3-(cyanomethyl)-1-(ethylsulfony)azetidine-3-yl)-1H-pyrazole-4-yl]-[1,2,4]triazolo[1,5-a]pyridin-2-yl)cyclopropyl carboxamide]",< 0.01 µM,F1 (1 ≤ F1 ≤ 5),F3 (10 < F3 ≤ 25)
"N#CCC1(n2cc(-c3nccc4nc(NC(=O)C5CC(O)C5)nn34)cn2)CN(S(=O)(=O)C(F)(F)F)C1 (stereo not drawn) [WX07, N-[5-[1-[3-(cyanomethyl)-1-(trifluoromethylsulfonyl)cyclobutylamine-3-yl]pyrazole-4-yl]-[1,2,4]triazolo[1,5-c]pyrimidin-2-yl]-3-hydroxy-cyclobutane formamide]",0.01 to 0.1 µM,F2 (5 < F2 ≤ 10),F4 (25 < F4 ≤ 100)
